Reference: patent US11225645B2 (priority 2002, dated 2022)
Entries after “also recorded” stand apart in the source; their conditions may differ. Like-named read-outs stand apart in the source and are kept apart here.

Tests used:
[1] = system: coenzyme-binding glucose dehydrogenase; experiment: Inhibitor test, additives added to Enzymatic activity measurement method 1; type: biochemical, Aspergillus terreus
[2] = system: coenzyme-binding glucose dehydrogenase; experiment: Substrate specificity and Km value, Enzymatic activity measurement method 1; type: biochemical, Aspergillus terreus
Description: Employing each of D-glucose and other substrates (each at 333 mM as a final concentration, except for D-cellobiose at 193 mM, D-trehalose and D-raffinose at 121 mM), the enzymatic activity of this enzyme was measured by the Enzymatic activity measurement method 1. The activity on each substrate is represented as a relative value to the activity of this enzyme on D-glucose being regarded as 100%, and shown in Table 1.
Similarly, the relative reactivities (enzymatic activity) on D-glucose and maltose each at two final concentrations, i.e. 550 mM and 100 mM, were measured. The results are represented as relative values based on the value on D-glucose.

[3] = system: glucose dehydrogenase whose coenzyme is a flavin adenine dinucleotide of Aspergillus oryzae; conditions: cited from earlier work
[4] = molecular target: glucose dehydrogenase whose coenzyme is the pyrroloquinolinequinone derived from Gluconobacter suboxydans (Gluconobacter oxydans, UniProt P27175); conditions: relative to glucose = 100%; cited from earlier work
Sequence of glucose dehydrogenase whose coenzyme is the pyrroloquinolinequinone derived from Gluconobacter suboxydans (P27175 34-808): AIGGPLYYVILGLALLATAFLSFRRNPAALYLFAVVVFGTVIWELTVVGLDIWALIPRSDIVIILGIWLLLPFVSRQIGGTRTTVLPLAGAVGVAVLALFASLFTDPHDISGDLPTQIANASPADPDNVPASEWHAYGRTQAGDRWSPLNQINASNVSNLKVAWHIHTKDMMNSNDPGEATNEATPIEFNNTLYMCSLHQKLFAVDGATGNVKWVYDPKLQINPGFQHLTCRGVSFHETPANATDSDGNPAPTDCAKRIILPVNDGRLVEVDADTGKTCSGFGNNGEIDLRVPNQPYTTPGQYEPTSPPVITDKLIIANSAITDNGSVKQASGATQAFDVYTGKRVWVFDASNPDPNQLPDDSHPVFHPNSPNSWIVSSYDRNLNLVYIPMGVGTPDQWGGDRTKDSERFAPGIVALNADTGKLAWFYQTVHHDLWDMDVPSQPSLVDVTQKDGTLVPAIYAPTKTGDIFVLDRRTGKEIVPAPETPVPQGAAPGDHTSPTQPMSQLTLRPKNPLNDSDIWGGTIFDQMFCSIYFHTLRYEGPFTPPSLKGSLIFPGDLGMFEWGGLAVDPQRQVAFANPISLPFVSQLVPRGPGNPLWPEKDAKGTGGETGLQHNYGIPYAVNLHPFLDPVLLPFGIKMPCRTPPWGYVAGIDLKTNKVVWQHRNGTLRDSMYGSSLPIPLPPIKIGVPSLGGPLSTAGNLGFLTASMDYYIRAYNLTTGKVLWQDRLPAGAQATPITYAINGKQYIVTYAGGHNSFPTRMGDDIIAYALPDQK

[5] = system: glucose dehydrogenase whose coenzyme is the pyrroloquinolinequinone derived from Pseudomonas sp.; conditions: relative to glucose = 100%; cited from earlier work
[6] = molecular target: glucose dehydrogenase whose coenzyme is the pyrroloquinolinequinone derived from Escherichia coli (Escherichia coli, UniProt P15877); conditions: relative to glucose = 100%; cited from earlier work
Sequence of glucose dehydrogenase whose coenzyme is the pyrroloquinolinequinone derived from Escherichia coli (P15877 whole entry): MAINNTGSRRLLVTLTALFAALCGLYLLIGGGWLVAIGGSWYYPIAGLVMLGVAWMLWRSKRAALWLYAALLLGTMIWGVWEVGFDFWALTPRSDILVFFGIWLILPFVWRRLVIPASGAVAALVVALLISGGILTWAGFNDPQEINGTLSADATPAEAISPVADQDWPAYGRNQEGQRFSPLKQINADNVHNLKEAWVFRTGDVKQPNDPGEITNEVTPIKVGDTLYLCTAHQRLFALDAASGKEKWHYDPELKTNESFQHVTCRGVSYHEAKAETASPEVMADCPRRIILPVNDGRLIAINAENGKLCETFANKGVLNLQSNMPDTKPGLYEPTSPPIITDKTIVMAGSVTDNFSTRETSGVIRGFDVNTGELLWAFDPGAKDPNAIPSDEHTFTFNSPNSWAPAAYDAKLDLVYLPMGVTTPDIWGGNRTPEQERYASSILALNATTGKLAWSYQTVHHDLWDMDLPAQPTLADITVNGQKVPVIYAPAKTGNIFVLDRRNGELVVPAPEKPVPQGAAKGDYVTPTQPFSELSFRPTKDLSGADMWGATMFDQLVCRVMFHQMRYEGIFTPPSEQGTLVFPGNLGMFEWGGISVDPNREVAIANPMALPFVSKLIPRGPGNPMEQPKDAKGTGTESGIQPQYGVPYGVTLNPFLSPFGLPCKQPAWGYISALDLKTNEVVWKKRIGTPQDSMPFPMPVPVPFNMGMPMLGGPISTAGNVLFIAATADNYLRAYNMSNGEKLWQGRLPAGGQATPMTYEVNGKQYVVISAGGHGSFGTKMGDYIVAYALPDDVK

[7] = additive 1 mM final concentration
[8] = substrate 333 mM final, activity on D-glucose = 100%
[9] = substrate final conc. 100 mM, D-glucose = 100%
[10] = substrate final conc. 550 mM, D-glucose = 100%
[11] = substrate 121 mM final, activity on D-glucose = 100%

Molecule: CC(C)(S)C(N)C(=O)O (racemic) [DL-Penicillamine]
- Inhibition (%) [1, 7]: 4.3%

Molecule: OC[C@H]1OC[C@H](O)[C@@H](O)[C@@H]1O [1,5-Anhydro-D-glucitol]
- Relative activity (%) [2, 8]: 2%
- Activity of the enzyme on the substrate (in words) ([2]; summary of Tables 1 and 2): lower activity; also recorded: weakly

Molecule: c1cnc2c(c1)ccc1cccnc12 [1,10-Phenanthroline]
- Inhibition (in words) [3]: not inhibited
- Inhibitory effect ([1]; 1 mM final concentration, methanol 10% (v/v)): 62.0%
- Inhibit (%) ([1]; 5 mM final concentration, methanol 10% (v/v)): 76%
- Inhibit (%) ([1]; 10 mM final concentration, methanol 10% (v/v)): 85%
- Inhibit (%) ([1]; 25 mM final concentration, methanol 10% (v/v)): 91%
- Inhibit (%) ([1]; 50 mM final concentration, methanol 10% (v/v)): 95%
- Inhibition (%) [1, 7]: 62.0%

Molecule: c1ccc(-c2ccccn2)nc1 [2,2′-Bipyridine]
- Inhibition (%) [1, 7]: 10.8%

Molecule: O=CC[C@@H](O)[C@H](O)[C@H](O)CO [2-Deoxy-D-glucose]
- Relative activity (%) [2, 8]: 48%

Molecule: O=C(O)c1ccccc1[N+](=O)[O-] [2-Nitrobenzoic acid]
- Inhibition (%) [1, 7]: 44.3%

Molecule: Oc1cccc2cccnc12 [8-Quinolinol]
- Inhibition (%) [1]: 13.9%

Molecule: CC(O)C(=O)O.CCOc1ccc2nc3cc(N)ccc3c(N)c2c1 [Acrinol]
- Inhibition (%) [1, 7]: 29.0%

Molecule: O=[N+]([O-])[O-].[Ag+] [AgNO3]
- Inhibition (%) [1]: 99.4%
- Inhibitory effect (in words) [1]: highest; also recorded: inhibited potently

Molecule: [Cl][Al]([Cl])[Cl] [AlCl3]
- Inhibition (%) [1]: 0%

Molecule: NN=C(N)N.O=S(=O)(O)O [Aminoguanidine sulfate]
- Inhibition (%) [1]: 1.1%

Molecule: [Ba+2].[Cl-].[Cl-] [BaCl2]
- Inhibition (%) [1, 7]: 2.6%

Molecule: O=C(O)c1ccccc1 [Benzoic acid]
- Inhibition (%) [1]: 0%

Molecule: [Ca+2].[Cl-].[Cl-] [CaCl2]
- Inhibition (%) [1]: 5.7%

Molecule: [Cl][Cd][Cl] [CdCl2]
- Inhibition (%) [1]: 0.8%

Molecule: O=C(O)CC(O)(CC(=O)O)C(=O)O [Citric acid]
- Inhibition (%) [1, 7]: 5.6%

Molecule: [Cl][Cu][Cl] [CuCl2]
- Inhibition (%) [1]: 100%
- Inhibitory effect (in words) [1]: highest; also recorded: inhibited potently

Molecule: N[C@@H]1CON=C1O [Cycloserine]
- Inhibition (%) [1, 7]: 3.6%

Molecule: NCCS [Cysteamine]
- Inhibition (%) [1, 7]: 9.8%

Molecule: OC[C@H]1O[C@@H](O[C@H]2[C@H](O)[C@@H](O)[C@H](O)O[C@@H]2CO)[C@H](O)[C@@H](O)[C@@H]1O [D-Cellobiose]
- Relative activity (%) ([2]; substrate 193 mM final, activity on D-glucose = 100%): 2%
- Activity of the enzyme on the substrate (in words) ([2]; summary of Tables 1 and 2): lower activity; also recorded: weakly

Molecule: O=C(CO)[C@@H](O)[C@H](O)[C@H](O)CO [D-Fructose]
- Relative activity (%) [2, 8]: 0.86%
- Activity of the enzyme on the substrate (in words) ([2]; summary of Tables 1 and 2): lower activity; also recorded: weakly

Molecule: O=C[C@H](O)[C@@H](O)[C@@H](O)[C@H](O)CO [D-Galactose]
- Relative activity (%) [2, 8]: 1.2%
- Activity of the enzyme on the substrate (in words) ([2]; summary of Tables 1 and 2): lower activity; also recorded: weakly

Molecule: O=P(O)(O)O[C@H]1O[C@H](CO)[C@@H](O)[C@H](O)[C@H]1O [D-Glucose-1-phosphate]
- Relative activity (%) [2, 8]: 0.1> %
- Activity of the enzyme on the substrate (in words) ([2]; summary of Tables 1 and 2): Almost no activity; also recorded: almost no effect

Molecule: O=C[C@H](O)[C@@H](O)[C@H](O)[C@H](O)COP(=O)(O)O [D-Glucose-6-phosphate]
- Relative activity (%) [2, 8]: 1.1%
- Activity of the enzyme on the substrate (in words) ([2]; summary of Tables 1 and 2): lower activity; also recorded: weakly

Molecule: O=C[C@H](O)[C@@H](O)[C@H](O)[C@H](O)CO [D-Glucose]
- Km [2]: 49.7 mM
- Relative activity (%) [2, 8]: 100%
- Relative activity (%) [2, 9]: 100%
- Relative activity (%) [2, 10]: 100%
- Activity of the enzyme on the substrate (in words) ([2]; summary of Tables 1 and 2): higher activity; also recorded: potently

Molecule: OC[C@@H](O)[C@@H](O)[C@H](O)[C@H](O)CO [D-Mannitol]
- Relative activity (%) [2, 8]: 0.1> %
- Activity of the enzyme on the substrate (in words) ([2]; summary of Tables 1 and 2): Almost no activity; also recorded: almost no effect

Molecule: O=C[C@@H](O)[C@@H](O)[C@H](O)[C@H](O)CO [D-Mannose]
- Relative activity (%) [2, 8]: 2.8%
- Activity of the enzyme on the substrate (in words) ([2]; summary of Tables 1 and 2): lower activity; also recorded: weakly

Molecule: OC[C@H]1O[C@H](OC[C@H]2O[C@H](O[C@]3(CO)O[C@H](CO)[C@@H](O)[C@@H]3O)[C@H](O)[C@@H](O)[C@@H]2O)[C@H](O)[C@@H](O)[C@H]1O [D-Raffinose]
- Relative activity (%) [2, 11]: 0.1> %
- Activity of the enzyme on the substrate (in words) ([2]; summary of Tables 1 and 2): Almost no activity; also recorded: almost no effect

Molecule: O=C[C@H](O)[C@H](O)[C@H](O)CO [D-Ribose]
- Relative activity (%) [2, 8]: 0.1> %
- Activity of the enzyme on the substrate (in words) ([2]; summary of Tables 1 and 2): Almost no activity; also recorded: almost no effect

Molecule: OC[C@@H](O)[C@@H](O)[C@H](O)[C@@H](O)CO [D-Sorbitol]
- Relative activity (%) [2, 8]: 0.1> %
- Activity of the enzyme on the substrate (in words) ([2]; summary of Tables 1 and 2): Almost no activity; also recorded: almost no effect

Molecule: O=C(O)[C@@H](O)[C@H](O)C(=O)O [D-Tartaric acid]
- Inhibition (%) [1, 7]: 8.5%

Molecule: OC[C@H]1O[C@H](O[C@H]2O[C@H](CO)[C@@H](O)[C@H](O)[C@H]2O)[C@H](O)[C@@H](O)[C@@H]1O [D-Trehalose]
- Relative activity (%) [2, 11]: 1.7%
- Activity of the enzyme on the substrate (in words) ([2]; summary of Tables 1 and 2): lower activity; also recorded: weakly

Molecule: O=C[C@H](O)[C@@H](O)[C@H](O)CO [D-Xylose]
- Relative activity (%) [2, 8]: 9.1%

Molecule: O=C(O)CN(CCN(CC(=O)O)CC(=O)O)CC(=O)O [EDTA]
- Inhibition (%) [1]: 0.4%

Molecule: CCO [Ethanol]
- Relative activity (%) [2, 8]: 0.1> %
- Activity of the enzyme on the substrate (in words) ([2]; summary of Tables 1 and 2): Almost no activity; also recorded: almost no effect

Molecule: [Cl][Fe]([Cl])[Cl] [FeCl3]
- Inhibition (%) [1]: 25.0%

Molecule: O=C(O)/C=C/C(=O)O [Fumaric acid]
- Inhibition (%) [1, 7]: 3.4%

Molecule: O=C(O)[C@H](O)[C@@H](O)[C@H](O)[C@H](O)CO [Gluconic acid]
- Activity of the enzyme on the substrate (in words) [2]: Almost no activity; also recorded: almost no effect
- Relative activity (%) [2]: 0.1> %

Molecule: OCC(O)CO [Glycerol]
- Relative activity (%) [2, 8]: 0.1> %
- Activity of the enzyme on the substrate (in words) ([2]; summary of Tables 1 and 2): Almost no activity; also recorded: almost no effect

Molecule: OO [H2O2]
- Inhibition (%) [1]: 1.7%

Molecule: [Cl][Hg][Cl] [HgCl2]
- Inhibition (%) [1, 7]: 100%
- Inhibitory effect (in words) ([1]; additive 1 mM final concentration, listed as Hg^2+): highest; also recorded: inhibited potently

Molecule: O=C(O)CI [Iodoacetic acid]
- Inhibition (%) [1]: 9.5%

Molecule: O=C[C@H](O)[C@@H](O)[C@@H](O)CO [L-Arabinose]
- Relative activity (%) [2, 8]: 0.1> %
- Activity of the enzyme on the substrate (in words) ([2]; summary of Tables 1 and 2): Almost no activity; also recorded: almost no effect

Molecule: C[C@H](O)[C@H](O)[C@@H](O)[C@@H](O)C=O [L-Rhamnose]
- Relative activity (%) [2, 8]: 0.1> %
- Activity of the enzyme on the substrate (in words) ([2]; summary of Tables 1 and 2): Almost no activity; also recorded: almost no effect

Molecule: O=C(CO)[C@@H](O)[C@H](O)[C@@H](O)CO [L-Sorbose]
- Relative activity (%) [2, 8]: 0.1> %
- Activity of the enzyme on the substrate (in words) ([2]; summary of Tables 1 and 2): Almost no activity; also recorded: almost no effect

Molecule: OC[C@H]1O[C@@H](O[C@H]2[C@H](O)[C@@H](O)C(O)O[C@@H]2CO)[C@H](O)[C@@H](O)[C@H]1O (stereo partly shown) [Lactose]
- Relative activity (%) [2, 8]: 0.1> %
- Activity of the enzyme on the substrate (in words) ([2]; summary of Tables 1 and 2): Almost no activity; also recorded: almost no effect

Molecule: [Cl-].[Li+] [LiCl]
- Inhibition (%) [1, 7]: 0.9%

Molecule: O=C(O)/C=C\C(=O)O [Maleic acid]
- Inhibition (%) [1, 7]: 26.2%

Molecule: O=C(O)CC(O)C(=O)O (stereo not shown) [Malic acid]
- Inhibition (%) [1, 7]: 8.1%

Molecule: OC[C@H]1O[C@H](O[C@H]2[C@H](O)[C@@H](O)[C@H](O)O[C@@H]2CO)[C@H](O)[C@@H](O)[C@@H]1O [Maltose]
- Relative activity (%) [2, 8]: 1.4%
- Relative activity (%) [2, 9]: 0.5%
- Relative activity (%) [2, 10]: 2.8%
- Activity of the enzyme on the substrate (in words) ([2]; summary of Tables 1 and 2): lower activity; also recorded: weakly
- Activity on maltose [4]: 5%
- Activity on maltose [5]: 3.2%
- Activity on maltose [6]: 3%

Molecule: O=C(O)C(O)C(O)C(=O)O (stereo not drawn) [Meso-tartaric acid]
- Inhibition (%) [1, 7]: 5.6%

Molecule: [Cl-].[Cl-].[Mg+2] [MgCl2]
- Inhibition (%) [1]: 2.8%

Molecule: CCN1C(=O)C=CC1=O [N-Ethylmaleimide]
- Inhibition (%) [1, 7]: 1.8%

Molecule: [Cl-].[Na+] [NaCl]
- Inhibition (%) [1]: 2.5%

Molecule: [N-]=[N+]=[N-].[Na+] [NaN3]
- Inhibition (%) [1]: 0%

Molecule: [Cl][Ni][Cl] [NiCl2]
- Inhibition (%) [1]: 16.5%

Molecule: [Cl][Pb][Cl] [PbCl2]
- Inhibition (%) [1]: 2.7%

Molecule: Nc1ccc2cc3ccc(N)cc3nc2c1 [Proflavin]
- Inhibition (%) [1, 7]: 62.0%

Molecule: CCN(CC)CCCC(C)Nc1c2ccc(Cl)cc2nc2ccc(OC)cc12 (stereo not shown) [Quinacrine]
- Inhibition (%) [1, 7]: 5.0%

Molecule: [Cl][Sn][Cl] [SnCl2]
- Inhibition (%) [1]: 45.5%

Molecule: OC[C@H]1O[C@@](CO)(O[C@H]2O[C@H](CO)[C@@H](O)[C@H](O)[C@H]2O)[C@@H](O)[C@@H]1O [Sucrose]
- Relative activity (%) [2, 8]: 0.1> %
- Activity of the enzyme on the substrate (in words) ([2]; summary of Tables 1 and 2): Almost no activity; also recorded: almost no effect

Molecule: O=S(=O)([O-])c1cc(O)c(O)c(S(=O)(=O)[O-])c1.[Na+].[Na+] [Tirone]
- Inhibition (%) [1]: 2.5%

Molecule: NC(N)=O [Urea]
- Inhibition (%) [1, 7]: 1.9%

Molecule: [Cl-].[Cl-].[Zn+2] [ZnCl2]
- Inhibition (%) [1]: 0%

Molecule: Acriflavine
- Inhibition (%) [1, 7]: 49.0%

Molecule: CoCl2
- Inhibition (%) [1]: 7.0%

Molecule: TritonX-100
- Inhibition (%) [1, 7]: 6.2%
